What was measured:
MV-4-11 = test: Oncology cell growth assay MV-4-11 (CellTiter Glo, 72 hours); type: cell-based; conditions: Homo sapiens, MV4-11, 72 h; MV-4-11 cell growth inhibitory activity, 3d
How it was run: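 MV-4-11 cells (MLL-AF4 AML) exposed 72 h to 8-point 1:3 titration, top final 10 μM, 0.2% DMSO. CellTiter Glo luminescence as cell-number readout, normalized to DMSO controls; pIC50 from four-parameter fit.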

bromodomain = test: Bromodomain cell assays of Example 40 (at least one of them); type: cell-based; conditions: in at least one of the bromodomain cell assays described in Example 40
How it was run: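 Growth inhibition: 3000 MV-4-11, MOLM-13, MM.1S or neuroblastoma cells/well got an 8-point 1:3 series from 10 μM top (0.2% DMSO) for 72 h, then CellTiter-Glo luminescence. Myc reporter: MV-4-11 with E-box firefly luciferase, 24 h exposure, One-Glo luminescence plus CellTiter-Fluo cell count. pIC50 from four-parameter fit.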

SMILES | IC50 (MV-4-11) | IC50 (bromodomain)
Cc1noc(C)c1-c1cnc2c(-c3cnn(C)c3)cn(C(CC#N)C3CCCC3)c2c1 (stereo not shown) [P-0197, 3-cyclopentyl-3-[6-(3,5-dimethylisoxazol-4-yl)-3-(1-methylpyrazol-4-yl)pyrrolo[3,2-b]pyridin-1-yl]propanenitrile] | ≤ 1 µM | < 10 µM
Cc1noc(C)c1-c1cnc2c(-c3cnn(C)c3)cn(Cc3ccccn3)c2c1 [P-0198, 3,5-dimethyl-4-[3-(1-methylpyrazol-4-yl)-1-(2-pyridylmethyl)pyrrolo[3,2-b]pyridin-6-yl]isoxazole] | ≤ 1 µM | < 10 µM
Cc1noc(C)c1-c1cnc2c(-c3cn[nH]c3)cn(C(C)c3ccccc3)c2c1 (stereo not shown) [P-0199, 3,5-dimethyl-4-[1-(1-phenylethyl)-3-(1H-pyrazol-4-yl)pyrrolo[3,2-b]pyridin-6-yl]isoxazole] | ≤ 1 µM | < 10 µM
CCn1cc(-c2cn(C(C)c3ccccc3)c3cc(-c4c(C)noc4C)cnc23)cn1 (stereo not shown) [P-0200, 4-[3-(1-ethylpyrazol-4-yl)-1-(1-phenylethyl)pyrrolo[3,2-b]pyridin-6-yl]-3,5-dimethyl-isoxazole] | ≤ 1 µM | < 10 µM
C=CCn1cc(-c2cn(C(C)c3ccccc3)c3cc(-c4c(C)noc4C)cnc23)cn1 (stereo not shown) [P-0201, 4-[3-(1-allylpyrazol-4-yl)-1-(1-phenylethyl)pyrrolo[3,2-b]pyridin-6-yl]-3,5-dimethyl-isoxazole] | ≤ 1 µM | < 10 µM
COCCn1cc(-c2cn(C(C)c3ccccc3)c3cc(-c4c(C)noc4C)cnc23)cn1 (stereo not shown) [P-0203, 4-[3-[1-(2-methoxyethyl)pyrazol-4-yl]-1-(1-phenylethyl)pyrrolo[3,2-b]pyridin-6-yl]-3,5-dimethyl-isoxazole] | ≤ 1 µM | < 10 µM
Cc1noc(C)c1-c1cnc2c(-c3cnn(C4CCOC4)c3)cn(C(C)c3ccccc3)c2c1 (stereo not shown) [P-0204, 3,5-dimethyl-4-[1-(1-phenylethyl)-3-(1-tetrahydrofuran-3-ylpyrazol-4-yl)pyrrolo[3,2-b]pyridin-6-yl]isoxazole] | ≤ 1 µM | < 10 µM
Cc1nn(C)cc1-c1cn(C(C)c2ccccc2)c2cc(-c3c(C)noc3C)cnc12 (stereo not shown) [P-0205, 4-[3-(1,3-dimethylpyrazol-4-yl)-1-(1-phenylethyl)pyrrolo[3,2-b]pyridin-6-yl]-3,5-dimethyl-isoxazole] | ≤ 1 µM | < 10 µM
Cc1noc(C)c1-c1cnc2c(-c3cnn(C)c3)cn(C(C(=O)O)c3ccccc3)c2c1 (stereo not shown) [P-0206, 2-[6-(3,5-dimethylisoxazol-4-yl)-3-(1-methylpyrazol-4-yl)pyrrolo[3,2-b]pyridin-1-yl]-2-phenyl-acetic acid] | 1 to 10 µM | < 10 µM
Cc1noc(C)c1-c1cnc2c(-c3cnn(C)c3)cn(C(C(=O)NC3CC3)c3ccccc3)c2c1 (stereo not shown) [P-0207, N-cyclopropyl-2-[6-(3,5-dimethylisoxazol-4-yl)-3-(1-methylpyrazol-4-yl)pyrrolo[3,2-b]pyridin-1-yl]-2-phenyl-acetamide] | ≤ 1 µM | < 10 µM
Cc1noc(C)c1-c1cnc2c(-c3cnn(C)c3)cn(CC3CCC(F)(F)CC3)c2c1 [P-0209, 4-[1-[(4,4-difluorocyclohexyl)methyl]-3-(1-methylpyrazol-4-yl)pyrrolo[3,2-b]pyridin-6-yl]-3,5-dimethyl-isoxazole] | ≤ 1 µM | < 10 µM
Cc1noc(C)c1-c1cnc2c(-c3cnn(C(F)F)c3)cn(CC3CCC(F)(F)CC3)c2c1 [P-0210, 4-[1-[(4,4-difluorocyclohexyl)methyl]-3-[1-(difluoromethyl)pyrazol-4-yl]pyrrolo[3,2-b]pyridin-6-yl]-3,5-dimethyl-isoxazole] | ≤ 1 µM | < 10 µM
[2H]C([2H])(C1CCC(F)(F)CC1)n1cc(-c2cnn(C)c2)c2ncc(-c3c(C)noc3C)cc21 [P-0211, 4-[1-[dideuterio-(4,4-difluorocyclohexyl)methyl]-3-(1-methylpyrazol-4-yl)pyrrolo[3,2-b]pyridin-6-yl]-3,5-dimethyl-isoxazole] | ≤ 1 µM | < 10 µM
Cc1noc(C)c1-c1cnc2c(-c3cnn(C)c3)cn(CC3(F)CCCCC3)c2c1 [P-0212, 4-[1-[(1-fluorocyclohexyl)methyl]-3-(1-methylpyrazol-4-yl)pyrrolo[3,2-b]pyridin-6-yl]-3,5-dimethyl-isoxazole] | ≤ 1 µM | < 10 µM
Cc1noc(C)c1-c1cnc2c(-c3cnn(C)c3)cn(CC3CC(F)(F)C3)c2c1 [P-0213, 4-[1-[(3,3-difluorocyclobutyl)methyl]-3-(1-methylpyrazol-4-yl)pyrrolo[3,2-b]pyridin-6-yl]-3,5-dimethyl-isoxazole] | ≤ 1 µM | < 10 µM
[2H]C([2H])(C1CC(F)(F)C1)n1cc(-c2cnn(C)c2)c2ncc(-c3c(C)noc3C)cc21 [P-0214, 4-[1-[dideuterio-(3,3-difluorocyclobutyl)methyl]-3-(1-methylpyrazol-4-yl)pyrrolo[3,2-b]pyridin-6-yl]-3,5-dimethyl-isoxazole] | ≤ 1 µM | < 10 µM
Cc1noc(C)c1-c1cnc2c(-c3cc(C(F)(F)F)n[nH]3)cn(C(C)c3ccccc3)c2c1 (stereo not shown) [P-0215, 3,5-dimethyl-4-[1-(1-phenylethyl)-3-[3-(trifluoromethyl)-1H-pyrazol-5-yl]pyrrolo[3,2-b]pyridin-6-yl]isoxazole] | ≤ 1 µM | < 10 µM
Cc1noc(C)c1-c1cnc2c(-c3cnn(C4CC4)c3)cn(C(C)c3ccccc3)c2c1 (stereo not shown) [P-0216, 4-[3-(1-cyclopropylpyrazol-4-yl)-1-(1-phenylethyl)pyrrolo[3,2-b]pyridin-6-yl]-3,5-dimethyl-isoxazole] | ≤ 1 µM | < 10 µM
[2H]C([2H])(O)C(c1ccccc1)n1cc(-c2cnn(C)c2)c2ncc(-c3c(C)noc3C)cc21 (stereo not shown) [P-0218, 1,1-dideuterio-2-[6-(3,5-dimethylisoxazol-4-yl)-3-(1-methylpyrazol-4-yl)pyrrolo[3,2-b]pyridin-1-yl]-2-phenyl-ethanol] | ≤ 1 µM | < 10 µM
[2H]C([2H])(C1CCC(F)(F)CC1)n1cc(-c2cnn(C(F)F)c2)c2ncc(-c3c(C)noc3C)cc21 [P-0219, 4-[1-[dideuterio-(4,4-difluorocyclohexyl)methyl]-3-[1-(difluoromethyl)pyrazol-4-yl]pyrrolo[3,2-b]pyridin-6-yl]-3,5-dimethyl-isoxazole] | ≤ 1 µM | < 10 µM
Cc1noc(C)c1-c1cnc2c(-c3cnn(C)c3)cn([C@@H](C)c3ccccc3)c2c1 [P-0222, 3,5-dimethyl-4-[3-(1-methylpyrazol-4-yl)-1-[(1S)-1-phenylethyl]pyrrolo[3,2-b]pyridin-6-yl]isoxazole] | ≤ 1 µM | < 10 µM
Cc1noc(C)c1-c1cnc2c(-c3cnn(C)c3)cn([C@H](C)c3ccccc3)c2c1 [P-0223, 3,5-dimethyl-4-[3-(1-methylpyrazol-4-yl)-1-[(1R)-1-phenylethyl]pyrrolo[3,2-b]pyridin-6-yl]isoxazole] | ≤ 1 µM | < 10 µM
Cc1noc(C)c1-c1cnc2c(I)cn(C(C)c3ccccc3)c2c1 (stereo not shown) [P-0224, 4-[3-iodo-1-(1-phenylethyl)pyrrolo[3,2-b]pyridin-6-yl]-3,5-dimethyl-isoxazole] | ≤ 1 µM | < 10 µM

From patent US10501460B2, “Heterocyclic compounds and uses thereof” (Plexxikon Inc., priority 2013, dated 2019)
